Results from patent publication USRE47689E1, “Compounds for treating spinal muscular atrophy” (PTC Therapeutics, Inc., priority 2011, dated 2019).

Experiments:
[1] = system: SMN2 minigene (full length SMN2 minigene mRNA containing SMN2 exon 7); experiment: SMN2 minigene mRNA splicing RT-qPCR assay in cultured cells; assay type: cell-based, human; conditions: HEK293H cells stably transfected with SMN2-A minigene, 24 hours, 7-point concentration curve, 1.5-fold relative to vehicle-treated cells; for EC (1.5-fold): Homo sapiens, HEK293-H, read-out: EC1.5x for production of full length SMN2 mRNA
Outline: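 Read-out: full-length (exon 7-included) SMN2 minigene mRNA by multiplex RT-qPCR with GAPDH, efficiency-corrected (1+E)^−Ct, GAPDH-normalized and divided by vehicle. Stably transfected HEK293H cells, 24 h compound exposure, duplicates per concentration. Value is EC1.5x, reported as star ranges.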

Smn protein = Smn protein assay in cultured cells (SMN HTRF); assay type: cell-based, human; conditions: 48 hours; for EC1.5x (concentration giving 1.5-fold Smn protein increase): SMA Type 1 patient fibroblast cells (GM03813), 7-point concentration curve, SMN HTRF, concentration producing 1.5 times Smn protein vs DMSO vehicle control, read-out: EC1.5x for Smn protein expression; for maximum fold (Fold) increase of Smn protein: SMA patient fibroblast cells, 7-point concentration data, fold increase relative to vehicle control (SMN HTRF)
Outline: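 Lysates in RIPA with protease inhibitors are incubated overnight at room temperature with HTRF anti-SMN antibodies. EC1.5x is derived from fold increase in ΔF over vehicle.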

Molecule	EC (1.5-fold) [1]	EC1.5x (concentration giving 1.5-fold Smn protein increase) (Smn protein)	maximum fold (Fold) increase of Smn protein (Smn protein)	EC1.5x for production of full length SMN2 mRNA [1]
Cc1cn2cc(-c3cc4ccc(N5CCCN(C(C)C)CC5)cc4oc3=O)cc2cn1 [Compound 753, 3-(3-methylpyrrolo[1,2-a]pyrazin-7-yl)-7-[4-(propan-2-yl)-1,4-diazepan-1-yl]-2H-chromen-2-one]	< 0.1 µM	1000 to 3000 nM	*** (fold increase between >1.35 and ≤1.5)	–
CN(C)CCN(C)c1ccc2cc(-c3nc4ccccc4o3)c(=O)oc2c1 [Compound 49, 3-(1,3-benzoxazol-2-yl)-7-{[2-(dimethylamino)ethyl](methyl)amino}-2H-chromen-2-one]	3 to 30 µM	–	* (maximum fold increase of ≤1.2)	–
O=C(O)C(F)(F)F.O=c1oc2cc(N3CCNCC3)ccc2cc1-c1nc2c(C(F)(F)F)cccc2o1 [Compound 1, 7-(piperazin-1-yl)-3[4-(trifluoromethyl)-1,3-benzoxazol-2-yl]-2H-chromen-2-one trifluoroacetate]	0.3 to 1 µM	–	* (maximum fold increase of ≤1.2)	–
Cc1nc2ccc(-c3cc4ccc(N5CCN[C@@H](C)C5)cc4oc3=O)cc2s1 [Compound 770, 3-(2-methyl-1,3-benzothiazol-6-yl)-7-[(3S)-3-methylpiperazin-1-yl]-2H-chromen-2-one]	< 0.1 µM	< 300 nM	**** (fold increase between >1.5 and ≤1.65)	–
COCCNCCOc1ccc2cc(-c3cn4cc(C)nc(C)c4n3)c(=O)oc2c1 [Compound 960, 3-(6,8-dimethylimidazo[1,2-a]pyrazin-2-yl)-7-{2-[(2-methoxyethyl)amino]ethoxy}-2H-chromen-2-one]	< 0.1 µM	1000 to 3000 nM	*** (fold increase between >1.35 and ≤1.5)	–
CN1CCN(c2ccc3cc(-c4ccc5nccn5c4)c(=O)oc3c2)CC1 [Compound 978, 3-(imidazo[1,2-a]pyridin-6-yl)-7-(4-methylpiperazin-1-yl)-2H-chromen-2-one]	1 to 3 µM	–	** (fold increase between >1.2 and ≤1.35)	–
CN1CCN(C(=O)c2ccc3cc(-c4nc5c(Cl)cccc5s4)c(=O)oc3c2)CC1 [Cpd 28, 3-(4-chloro-1,3-benzothiazol-2-yl)-7-[(4-methylpiperazin-1-yl)carbonyl]-2H-chromen-2-one]	3 to 30 µM	–	* (maximum fold increase of ≤1.2)	–
CN1CCN(c2ccc3cc(-c4ccnc(C5CC5)n4)c(=O)oc3c2)CC1 [Compound 298, 3-(2-cyclopropylpyrimidin-4-yl)-7-(4-methylpiperazin-1-yl)-2H-chromen-2-one]	1 to 3 µM	–	* (maximum fold increase of ≤1.2)	–
Cc1cn2cc(-c3cc4ccc(N5CC6(CN(C)C6)C5)cc4oc3=O)nc2c(C)n1 [Compound 972, 3-(6,8-dimethylimidazo[1,2-a]pyrazin-2-yl)-7-(6-methyl-2,6-diazaspiro[3.3]hept-2-yl)-2H-chromen-2-one]	0.3 to 1 µM	3000 to 10000 nM	*** (fold increase between >1.35 and ≤1.5)	–
Cc1cn2cc(-c3cc4ccc(N5CCNCC5)cc4oc3=O)cc(F)c2n1 [Compound 986, 3-(8-fluoro-2-methylimidazo[1,2-a]pyridin-6-yl)-7-(piperazin-1-yl)-2H-chromen-2-one]	< 0.1 µM	< 300 nM	***** (fold increase >1.65)	–
C[C@H]1CN(c2ccc3cc(-c4cc5ccccn5c4)c(=O)oc3c2)CCN1 [Compound 565, 3-(indolizin-2-yl)-7-[(3S)-3-methylpiperazin-1-yl]-2H-chromen-2-one]	1 to 3 µM	–	* (maximum fold increase of ≤1.2)	–
Cc1cc2cc(-c3cc4ccc(N5CCN(CC6CC6)CC5)cc4oc3=O)oc2c(C)n1 [Compound 816, 7-[4-(cyclopropylmethyl)piperazin-1-yl]-3-(5,7-dimethylfuro[2,3-c]pyridin-2-yl)-2H-chromen-2-one]	< 0.1 µM	300 to 1000 nM	**** (fold increase between >1.5 and ≤1.65)	–
7-(1,4-diazepan-1-yl)-3-(6-methylimidazo[1,2-a]pyrazin-2-yl)-2H-chromen-2-one [Compound 477]	–	< 300 nM	***** (fold increase >1.65)	***** (EC1.5x≤0.1 μM)
CCN1CCCN(c2ccc3cc(-c4cn5cc(C)ncc5n4)c(=O)oc3c2)CC1 [Compound 618, 7-(4-ethyl-1,4-diazepan-1-yl)-3-(6-methylimidazo[1,2-a]pyrazin-2-yl)-2H-chromen-2-one]	< 0.1 µM	< 300 nM	**** (fold increase between >1.5 and ≤1.65)	–
Cc1cn2cc(-c3cc4ccc(N5CCN(C)CC5)cc4oc3=O)cc(F)c2n1 [Compound 982, 3-(8-fluoro-2-methylimidazo[1,2-a]pyridin-6-yl)-7-(4-methylpiperazin-1-yl)-2H-chromen-2-one]	< 0.1 µM	< 300 nM	***** (fold increase >1.65)	–
CCc1nc(C)cn2cc(-c3cc4ccc(N5CCNCC5)cc4oc3=O)nc12 [Compound 824, 3-(8-ethyl-6-methylimidazo[1,2-a]pyrazin-2-yl)-7-(piperazin-1-yl)-2H-chromen-2-one]	< 0.1 µM	< 300 nM	**** (fold increase between >1.5 and ≤1.65)	–
Cc1cn2cc(-c3cc4ccc(N5CCNCC5)cc4oc3=O)nc2c(C)n1 [Compound 515, 3-(6,8-dimethylimidazo[1,2-a]pyrazin-2-yl)-7-(piperazin-1-yl)-2H-chromen-2-one]	< 0.1 µM	< 300 nM	***** (fold increase >1.65)	–
Cc1nc(Cl)cn2cc(-c3cc4ccc(N5C[C@@H]6C[C@H]5CN6C)cc4oc3=O)nc12 [Compound 787, 3-(6-chloro-8-methylimidazo[1,2-a]pyrazin-2-yl)-7-[(1S,4S)-5-methyl-2,5-diazabicyclo[2.2.1]hept-2-yl]-2H-chromen-2-one]	< 0.1 µM	300 to 1000 nM	*** (fold increase between >1.35 and ≤1.5)	–
Cc1cn2cc(-c3cc4ccc(N5CCC(N)CC5)cc4oc3=O)cc2c(C)n1 [Compound 714, 7-(4-aminopiperidin-1-yl)-3-(1,3-dimethylpyrrolo[1,2-a]pyrazin-7-yl)-2H-chromen-2-one]	0.1 to 0.3 µM	–	* (maximum fold increase of ≤1.2)	–
O=c1oc2cc(OC[C@@H]3CCCN3)ccc2cc1-c1nc2ccccc2s1 [Compound 56, 3-(1,3-benzothiazol-2-yl)-7-[(2S)-pyrrolidin-2-ylmethoxy]-2H-chromen-2-one]	3 to 30 µM	–	* (maximum fold increase of ≤1.2)	–
Cc1cn2cc(-c3cc4ccc(C5CCN(C6COC6)CC5)cc4oc3=O)nc2cn1 [Compound 878, 3-(6-methylimidazo[1,2-a]pyrazin-2-yl)-7-[1-(oxetan-3-yl)piperidin-4-yl]-2H-chromen-2-one]	< 0.1 µM	300 to 1000 nM	***** (fold increase >1.65)	–
O=c1oc2cc(N3CCNCC3)ccc2cc1-c1cn2ccccc2n1 [Compound 34, 3-(imidazo[1,2-a]pyridin-2-yl)-7-(piperazin-1-yl)-2H-chromen-2-one]	0.3 to 1 µM	–	** (fold increase between >1.2 and ≤1.35)	–
C[C@H]1CN(c2ccc3cc(-c4ccc5nccn5c4)c(=O)oc3c2)CCN1 [Compound 981, 3-(imidazo[1,2-a]pyridin-6-yl)-7-[(3S)-3-methylpiperazin-1-yl]-2H-chromen-2-one]	0.1 to 0.3 µM	1000 to 3000 nM	**** (fold increase between >1.5 and ≤1.65)	–
CCN1CCC(c2ccc3cc(-c4cc5c(C)nc(C)cn5n4)c(=O)oc3c2)CC1 [Cpd 853, 3-(4,6-dimethylpyrazolo[1,5-a]pyrazin-2-yl)-7-(1-ethylpiperidin-4-yl)-2H-chromen-2-one]	1 to 3 µM	–	* (maximum fold increase of ≤1.2)	–
Cc1cn2cc(-c3cc4ccc(N5CCN[C@@H](C)C5)cc4oc3=O)ccc2n1 [Compound 664, 3-(2-methylimidazo[1,2-a]pyridin-6-yl)-7-[(3S)-3-methylpiperazin-1-yl]-2H-chromen-2-one]	< 0.1 µM	< 300 nM	***** (fold increase >1.65)	–
CC1CN(c2ccc3cc(-c4nc5ccccc5o4)c(=O)oc3c2)C(C)CN1 (stereo not shown) [Compound 86, 3-(1,3-benzoxazol-2-yl)-7-(2,5-dimethylpiperazin-1-yl)-2H-chromen-2-one]	3 to 30 µM	–	* (maximum fold increase of ≤1.2)	–
